Measurements taken from the SangsterLogP compilation.

SMILES	logP
COc1c(I)cc(C#N)cc1[N+](=O)[O-]	2.9
CS(=O)(=O)c1c(F)c(F)c(F)c(F)c1F	1.2
Cc1cc(I)c(O)c(I)c1	4.2
O=C(O)c1cc(I)c(O)c(I)c1	3.7
CCCCCCCC(=O)Oc1c(I)cc(C#N)cc1I	6.8
O=C(O)c1cc(Cl)ccc1O	2.9
CNC(=O)Oc1c(I)cc(C#N)cc1I	3.3
COc1c(I)cc(C#N)cc1I	4.1
N#Cc1cc(I)cc(I)c1O	4.1
COC(=O)c1cc(I)c(O)c(I)c1	3.9
Cc1cc(O)ccc1Cl	3.1
N#Cc1cc(I)c(O)c(I)c1	3.8
N#Cc1cc(I)c(O)c([N+](=O)[O-])c1	2.7
CSc1c(C)cc(O)cc1C	2.8
CC(C)C(=O)Oc1c(I)cc(C#N)cc1I	4.6
O=[N+]([O-])c1ccc(Cl)c(O)c1	2.4
CCCCN(CCCC)SN(C)C(=O)Oc1cccc2c1OC(C)(C)C2	5
NC(=S)c1cc(I)c(O)c(I)c1	3.2
Fc1c(F)c(F)c(C(F)(F)F)c(F)c1F	3
COc1ccccc1[N+](=O)[O-]	2
CC(=O)Oc1c(I)cc(C#N)cc1I	3.8
Fc1c(F)c(F)c(S)c(F)c1F	2
CSc1ccc(O)cc1C	2.3
